Measurements taken from ChEMBL document CHEMBL5257037, “Side Chain Cyclized Aromatic Amino Acids: Great Tools as Local Constraints in Peptide and Peptidomimetic Design” (J Med Chem, 2016).

Experiments:
[1] = molecular target: T1, Angiotensin-converting enzyme (Rattus norvegicus) (UniProt P47820); test: In vivo inhibition of ACE in iv dosed rat assessed as inhibition of Ang1 induced pressor response; format: functional, organism-based
T1 sequence (whole entry): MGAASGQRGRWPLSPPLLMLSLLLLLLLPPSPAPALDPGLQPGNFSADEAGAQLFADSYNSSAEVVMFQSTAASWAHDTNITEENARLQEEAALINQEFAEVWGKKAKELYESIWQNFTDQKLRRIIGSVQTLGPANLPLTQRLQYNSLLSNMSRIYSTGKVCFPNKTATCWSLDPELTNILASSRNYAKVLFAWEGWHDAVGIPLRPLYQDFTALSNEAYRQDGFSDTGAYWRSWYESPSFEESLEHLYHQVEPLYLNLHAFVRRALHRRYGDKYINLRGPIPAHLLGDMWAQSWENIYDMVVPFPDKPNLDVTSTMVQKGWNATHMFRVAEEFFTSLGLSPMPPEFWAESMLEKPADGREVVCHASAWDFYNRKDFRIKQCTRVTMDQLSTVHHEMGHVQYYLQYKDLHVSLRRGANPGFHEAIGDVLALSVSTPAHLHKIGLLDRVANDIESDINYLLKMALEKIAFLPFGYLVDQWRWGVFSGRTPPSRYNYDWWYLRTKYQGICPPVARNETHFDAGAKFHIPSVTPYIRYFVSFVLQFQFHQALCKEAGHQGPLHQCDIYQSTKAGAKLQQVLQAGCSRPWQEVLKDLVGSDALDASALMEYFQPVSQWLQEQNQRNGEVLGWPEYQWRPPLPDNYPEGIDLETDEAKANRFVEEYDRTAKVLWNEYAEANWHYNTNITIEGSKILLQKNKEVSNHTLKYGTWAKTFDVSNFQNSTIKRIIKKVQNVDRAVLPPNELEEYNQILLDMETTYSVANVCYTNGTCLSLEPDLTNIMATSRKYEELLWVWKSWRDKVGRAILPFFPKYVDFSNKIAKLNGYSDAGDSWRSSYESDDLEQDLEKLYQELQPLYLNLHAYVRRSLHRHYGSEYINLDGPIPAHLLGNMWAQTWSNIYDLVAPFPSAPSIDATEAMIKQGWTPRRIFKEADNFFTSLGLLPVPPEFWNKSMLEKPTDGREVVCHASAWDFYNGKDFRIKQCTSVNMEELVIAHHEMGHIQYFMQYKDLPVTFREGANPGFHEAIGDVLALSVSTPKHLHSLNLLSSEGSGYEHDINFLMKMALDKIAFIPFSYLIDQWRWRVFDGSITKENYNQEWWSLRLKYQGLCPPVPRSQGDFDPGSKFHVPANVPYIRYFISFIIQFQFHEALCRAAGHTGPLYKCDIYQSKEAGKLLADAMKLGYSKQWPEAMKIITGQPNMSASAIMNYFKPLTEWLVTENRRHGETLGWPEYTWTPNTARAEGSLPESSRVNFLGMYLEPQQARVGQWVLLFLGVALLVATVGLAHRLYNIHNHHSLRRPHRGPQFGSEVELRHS

[2] = molecular target: T2, B2 bradykinin receptor (Homo sapiens) (UniProt P30411); test: Inhibition of B2 bradykinin receptor (unknown origin) at 10 mM relative to control
T2 sequence (whole entry): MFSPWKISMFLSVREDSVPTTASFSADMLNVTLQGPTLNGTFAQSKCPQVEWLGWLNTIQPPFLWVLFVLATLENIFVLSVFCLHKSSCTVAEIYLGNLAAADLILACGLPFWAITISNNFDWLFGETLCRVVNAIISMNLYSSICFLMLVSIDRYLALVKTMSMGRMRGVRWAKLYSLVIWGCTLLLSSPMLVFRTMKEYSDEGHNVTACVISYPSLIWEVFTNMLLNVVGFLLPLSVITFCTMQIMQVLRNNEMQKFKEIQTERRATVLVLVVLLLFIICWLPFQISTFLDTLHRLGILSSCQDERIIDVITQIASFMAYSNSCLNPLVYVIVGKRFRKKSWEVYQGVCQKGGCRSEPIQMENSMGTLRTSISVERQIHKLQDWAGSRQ

| Compound | ED50 [1] | inhibition [2] |
| --- | --- | --- |
| C[C@H](NC(=O)[C@@H](S)Cc1ccccc1)C(=O)N1CCC[C@H]1C(=O)O | 0.06 µmol/kg |  |
| C[C@@H](C(=O)N[C@@H](CCCNC(=N)N)C(=O)O)N1Cc2ccccc2C[C@@H](NC(=O)[C@H](CO)NC(=O)[C@H](Cc2ccccc2)NC(=O)CNC(=O)[C@@H]2CCCN2C(=O)[C@@H]2CCCN2C(=O)[C@@H](N)CCCNC(=N)N)C1=O |  | 54% |
| C[C@H](NC(=O)[C@@H](CS)Cc1ccccc1)C(=O)N1Cc2ccccc2C[C@H]1C(=O)O | 0.57 µmol/kg |  |
| C[C@H](NC(=O)[C@@H](CS)Cc1ccccc1)C(=O)N1c2ccccc2C[C@H]1C(=O)O | 0.15 µmol/kg |  |
| O=C(O)CN1C(=O)[C@@H](NC(=O)[C@@H](S)Cc2ccccc2)CCc2ccccc21 | 0.02 µmol/kg |  |
| C[C@H](NC(=O)[C@@H](CS)Cc1ccccc1)C(=O)N1CCC[C@H]1C(=O)O | 0.5 µmol/kg |  |
